Patent publication US11000033B2, “Ketone or oxime compound, and herbicide” (NISSAN CHEMICAL CORPORATION, priority 2014, dated 2021)

Columns and labels:
Assay type in all cases: in vivo
Cyperus difformis = assay: Test Example 3: herbicidal effect by foliage application, Wagner pot (symbol E); details: application herbicide amount 320 g/ha
Summary of the method: (§1)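 Foliar spray of a water-diluted emulsion at a predetermined herbicide amount, applied to 14-day-old plants. Seedlings were raised in flooded alluvial soil (0.1–0.5 cm water) at 25–30 °C in a greenhouse. Injury was rated after 3 weeks against fixed criteria.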

Setaria viridis = assay: Test Example 5: herbicidal effect by foliage application, plastic box (symbol G); details: 320 g/ha, 3 weeks after application
Summary of the method: (§2)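 Herbicide, formulated as an emulsion and diluted in water, is sprayed onto the aerial parts of 14-day seedlings. These were grown at 25° C. to 30° C. in sterilized diluvial soil; effects are graded after 3 weeks.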

wheat = assay: Test Example 5: effect on crop by foliage application, plastic box (symbol e); details: 320 g/ha, 3 weeks after application
Summary of the method: (§3)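 Greenhouse test at 25° C. to 30° C. Seeds of crops and weeds were spot-sown in boxes of sterilized diluvial soil under roughly 1.5 cm soil cover, then grown for foliage treatment.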

[1] = test system: Echinochloa crus-galli var. crus-galli; assay: Test Example 4: herbicidal effect by soil treatment (symbol H); details: 320 g/ha
Summary of the method: (§4)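 Seeds were sown in sterilized diluvial soil, covered with about 1.5 cm of soil, and the soil surface was sprayed with a water-diluted emulsion of the compound at a predetermined rate. Plants grew in a greenhouse at 25° C. to 30° C.; effects were scored visually 3 weeks after application.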

Leptochloa chinensis = assay: Test Example 3: herbicidal effect by foliage application, Wagner pot (symbol D); details: application herbicide amount 320 g/ha
Summary of the method: as §1

Chenopodium album = assay: Test Example 5: herbicidal effect by foliage application, plastic box (symbol O); details: 320 g/ha, 3 weeks after application
Summary of the method: as §2

Stellaria media = assay: Test Example 5: herbicidal effect by foliage application, plastic box (symbol P); details: 320 g/ha, 3 weeks after application
Summary of the method: as §2

Lolium multiflorum Lam. [2] = assay: Test Example 5: herbicidal effect by foliage application, plastic box (symbol K); details: 320 g/ha, 3 weeks after application
Summary of the method: as §2

[3] = test system: directly sowed rice plant; assay: Test Example 3: effect on crop by foliage application, Wagner pot (symbol b); details: application herbicide amount 320 g/ha
Summary of the method: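 Greenhouse culture at 25–30 °C of seeded rice, Cyperus difformis, Leptochloa chinensis and Echinochloa crus-galli var. crus-galli, in alluvial soil held under 0.1–0.5 cm of water in a Wagner pot.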

Digitaria ciliaris = assay: Test Example 4: herbicidal effect by soil treatment (symbol F); details: 320 g/ha
Summary of the method: as §4

Apera spica-venti = assay: Test Example 5: herbicidal effect by foliage application, plastic box (symbol L); details: 320 g/ha, 3 weeks after application
Summary of the method: as §2

beet = assay: Test Example 5: effect on crop by foliage application, plastic box (symbol f); details: 320 g/ha, 3 weeks after application
Summary of the method: as §3

corn [4] = assay: Test Example 4: effect on crop by soil treatment (symbol c); details: 320 g/ha
Summary of the method: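 Plants are raised in a greenhouse (25° C. to 30° C.) from spot-sown seed, which sits under about 1.5 cm of sterilized diluvial soil in a box shared with weed species.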

soybean = assay: Test Example 4: effect on crop by soil treatment (symbol d); details: 320 g/ha
Summary of the method: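 Sterilized diluvial soil, spot sowing, ~1.5 cm soil cover; greenhouse 25–30° C.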

rapeseed = assay: Test Example 5: effect on crop by foliage application, plastic box (symbol g); details: 320 g/ha, 3 weeks after application
Summary of the method: as §3

Lolium multiflorum Lam. [5] = assay: Test Example 4: herbicidal effect by soil treatment (symbol K); details: 320 g/ha
Summary of the method: as §4

Amaranthus retroflexus = assay: Test Example 4: herbicidal effect by soil treatment (symbol N); details: 320 g/ha
Summary of the method: as §4

Abutilon theophrasti [6] = assay: Test Example 4: herbicidal effect by soil treatment (symbol M); details: 320 g/ha
Summary of the method: as §4

corn [7] = assay: Test Example 5: effect on crop by foliage application, plastic box (symbol c); details: 320 g/ha, 3 weeks after application
Summary of the method: as §3

Abutilon theophrasti [8] = assay: Test Example 5: herbicidal effect by foliage application, plastic box (symbol M); details: 320 g/ha, 3 weeks after application
Summary of the method: as §2

Avena fatua = assay: Test Example 5: herbicidal effect by foliage application, plastic box (symbol I); details: 320 g/ha, 3 weeks after application
Summary of the method: as §2

| SMILES | herbicidal effect on E, grade 0-5 (Cyperus difformis) | G: Setaria viridis, herbicidal effect grade (Setaria viridis) | e: wheat, effect on crop grade (wheat) | H: Echinochloa crus-galli var. crus-galli, herbicidal effect grade [1] | herbicidal effect on D (Leptochloa chinensis), grade 0-5 (Leptochloa chinensis) | O: Chenopodium album, herbicidal effect grade (Chenopodium album) | P: Stellaria media, herbicidal effect grade (Stellaria media) | K: Lolium multiflorum Lam., herbicidal effect grade (Lolium multiflorum Lam. [2]) | effect on crop b (directly sowed rice plant), grade 0-5 [3] | F: Digitaria ciliaris, herbicidal effect grade (Digitaria ciliaris) | L: Apera spica-venti, herbicidal effect grade (Apera spica-venti) | f: beet, effect on crop grade (beet) | c: corn, effect grade on crop (corn [4]) | d: soybean, effect grade on crop (soybean) | g: rapeseed, effect on crop grade (rapeseed) | K: Lolium multiflorum Lam., herbicidal effect grade (Lolium multiflorum Lam. [5]) | N: Amaranthus retroflexus, herbicidal effect grade (Amaranthus retroflexus) | M: Abutilon theophrasti, herbicidal effect grade (Abutilon theophrasti [6]) | c: corn, effect on crop grade (corn [7]) | M: Abutilon theophrasti, herbicidal effect grade (Abutilon theophrasti [8]) | further results |
| --- | --- | --- | --- | --- | --- | --- | --- | --- | --- | --- | --- | --- | --- | --- | --- | --- | --- | --- | --- | --- | --- |
| CON=C(C)CC1CC(OC(=O)Cc2ccc(OC)cc2)=C(c2c(C)cc(C)cc2C)C1=O (stereo not drawn) [1-156] | 5 (Herbicidal ratio of 90% or more (almost completely withered)) | 5 (Herbicidal ratio of 90% or more (almost completely withered)) | 5 (Herbicidal ratio of 90% or more (almost completely withered)) | 5 (Herbicidal ratio of 90% or more (almost completely withered)) | 5 (Herbicidal ratio of 90% or more (almost completely withered)) | 2 (Herbicidal ratio of 20% or higher and lower than 40%) | 3 (Herbicidal ratio of 40% or higher and lower than 70%) | 5 (Herbicidal ratio of 90% or more (almost completely withered)) | 5 (Herbicidal ratio of 90% or more (almost completely withered)) | 5 (Herbicidal ratio of 90% or more (almost completely withered)) | 5 (Herbicidal ratio of 90% or more (almost completely withered)) | 3 (Herbicidal ratio of 40% or higher and lower than 70%) | 1 (Herbicidal ratio of 5% or higher and lower than 20%) | 0 (Herbicidal ratio of 5% or lower (almost no effect)) | 4 (Herbicidal ratio of 70% or higher and lower than 90%) | 5 (Herbicidal ratio of 90% or more (almost completely withered)) | 5 (Herbicidal ratio of 90% or more (almost completely withered)) | 5 (Herbicidal ratio of 90% or more (almost completely withered)) | 4 (Herbicidal ratio of 70% or higher and lower than 90%) | 4 (Herbicidal ratio of 70% or higher and lower than 90%) | I: Avena fatua, herbicidal effect grade (Avena fatua): 5 (Herbicidal ratio of 90% or more (almost completely withered)) |
| CON=C(C)CC1CC(OC(=O)N(C)c2ccccc2)=C(c2c(C)cc(C)cc2C)C1=O (stereo not drawn) [1-159] | 4 (Herbicidal ratio of 70% or higher and lower than 90%) | 1 (Herbicidal ratio of 5% or higher and lower than 20%) | 2 (Herbicidal ratio of 20% or higher and lower than 40%) | 3 (Herbicidal ratio of 40% or higher and lower than 70%) | 5 (Herbicidal ratio of 90% or more (almost completely withered)) | 0 (Herbicidal ratio of 5% or lower (almost no effect)) | 0 (Herbicidal ratio of 5% or lower (almost no effect)) | 5 (Herbicidal ratio of 90% or more (almost completely withered)) | 5 (Herbicidal ratio of 90% or more (almost completely withered)) | 4 (Herbicidal ratio of 70% or higher and lower than 90%) | 5 (Herbicidal ratio of 90% or more (almost completely withered)) | 2 (Herbicidal ratio of 20% or higher and lower than 40%) | 0 (Herbicidal ratio of 5% or lower (almost no effect)) | 0 (Herbicidal ratio of 5% or lower (almost no effect)) | 4 (Herbicidal ratio of 70% or higher and lower than 90%) | 5 (Herbicidal ratio of 90% or more (almost completely withered)) | 0 (Herbicidal ratio of 5% or lower (almost no effect)) | 0 (Herbicidal ratio of 5% or lower (almost no effect)) | 0 (Herbicidal ratio of 5% or lower (almost no effect)) | 4 (Herbicidal ratio of 70% or higher and lower than 90%) | I: Avena fatua, herbicidal effect grade (Avena fatua): 5 (Herbicidal ratio of 90% or more (almost completely withered)) |
| CON=C(C)CC1CC(OC(=O)c2c(Cl)nn(C)c2Cl)=C(c2c(C)cc(C)cc2C)C1=O (stereo not drawn) [1-160] | 5 (Herbicidal ratio of 90% or more (almost completely withered)) | 5 (Herbicidal ratio of 90% or more (almost completely withered)) | 5 (Herbicidal ratio of 90% or more (almost completely withered)) | 5 (Herbicidal ratio of 90% or more (almost completely withered)) | 5 (Herbicidal ratio of 90% or more (almost completely withered)) | 2 (Herbicidal ratio of 20% or higher and lower than 40%) | 3 (Herbicidal ratio of 40% or higher and lower than 70%) | 5 (Herbicidal ratio of 90% or more (almost completely withered)) | 5 (Herbicidal ratio of 90% or more (almost completely withered)) | 5 (Herbicidal ratio of 90% or more (almost completely withered)) | 5 (Herbicidal ratio of 90% or more (almost completely withered)) | 5 (Herbicidal ratio of 90% or more (almost completely withered)) | 0 (Herbicidal ratio of 5% or lower (almost no effect)) | 0 (Herbicidal ratio of 5% or lower (almost no effect)) | 5 (Herbicidal ratio of 90% or more (almost completely withered)) | 5 (Herbicidal ratio of 90% or more (almost completely withered)) | 4 (Herbicidal ratio of 70% or higher and lower than 90%) | 4 (Herbicidal ratio of 70% or higher and lower than 90%) | 4 (Herbicidal ratio of 70% or higher and lower than 90%) | 4 (Herbicidal ratio of 70% or higher and lower than 90%) | I: Avena fatua, herbicidal effect grade (Avena fatua): 5 (Herbicidal ratio of 90% or more (almost completely withered)) |
| CON=C(C)CC1CC(OS(=O)(=O)c2ccc(C)cc2)=C(c2c(C)cc(C)cc2C)C1=O (stereo not drawn) [1-161] | 4 (Herbicidal ratio of 70% or higher and lower than 90%) | 0 (Herbicidal ratio of 5% or lower (almost no effect)) | 2 (Herbicidal ratio of 20% or higher and lower than 40%) | 0 (Herbicidal ratio of 5% or lower (almost no effect)) | 5 (Herbicidal ratio of 90% or more (almost completely withered)) | 0 (Herbicidal ratio of 5% or lower (almost no effect)) | 0 (Herbicidal ratio of 5% or lower (almost no effect)) | 5 (Herbicidal ratio of 90% or more (almost completely withered)) | 5 (Herbicidal ratio of 90% or more (almost completely withered)) | 5 (Herbicidal ratio of 90% or more (almost completely withered)) | 5 (Herbicidal ratio of 90% or more (almost completely withered)) | 0 (Herbicidal ratio of 5% or lower (almost no effect)) | 0 (Herbicidal ratio of 5% or lower (almost no effect)) | 0 (Herbicidal ratio of 5% or lower (almost no effect)) | 3 (Herbicidal ratio of 40% or higher and lower than 70%) | 3 (Herbicidal ratio of 40% or higher and lower than 70%) | 0 (Herbicidal ratio of 5% or lower (almost no effect)) | 0 (Herbicidal ratio of 5% or lower (almost no effect)) | 1 (Herbicidal ratio of 5% or higher and lower than 20%) | 0 (Herbicidal ratio of 5% or lower (almost no effect)) | I: Avena fatua, herbicidal effect grade (Avena fatua): 4 (Herbicidal ratio of 70% or higher and lower than 90%) |
